Results as given in patent US9394253B2, “Kinase protein binding inhibitors” (Roswell Park Cancer Institute, priority 2011, dated 2016).

Experiments:
FAK FAT domain = target: T1, FAK FAT domain (Homo sapiens, UniProt Q05397); test: Label-free OctetRED binding assay
T1 sequence (Q05397 914-1045 limits assumed): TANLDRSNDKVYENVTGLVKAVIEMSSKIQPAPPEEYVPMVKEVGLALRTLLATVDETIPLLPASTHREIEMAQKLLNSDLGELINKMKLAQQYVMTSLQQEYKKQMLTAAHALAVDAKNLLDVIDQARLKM
From the text: We used a label-free OctetRED method for determining kinetic constants for the binding of small molecule inhibitors to the FAK FAT domain.
A label-free OctetRED method was used for determining kinetic constants for the binding of C9 or C10 to the FAK-FAT domain. Label-free analysis of the association and dissociation of a small molecule with the target protein of interest results in the determination of kinetic constants including the association rate constant (ka), dissociation rate constant (kd), and equilibrium dissociation constant (KD).

[1] = tested on: pancreatic cancer cell line; test: Viability of pancreatic cancer cells exposed to compounds (FIG. 3); assay type: cell-based, Human; conditions: 50 μM
Method: (§1) Equal numbers of cells were plated and allowed to attach for 24 hours. Cells were treated with the drug or control as described. Cellular viability was measured using trypan blue exclusion and cell counting with a hemacytometer. Viability was further measured with an MTS (3-(4,5-dimethylthiazol-2-yl)-5-(3-carboxymethoxyphenyl)-2-(4-sulfophenyl)-2H-tetrazolium) assay. MTS in the presence of phenazine methosulfate (PMS), produces a formazan product that has an absorbance maximum at 490-500 nm in phosphate-buffered saline. In brief, cells were plated at 5×10^3 cells per well on 96-well culture plates and allowed to attach. Following treatment with siRNA or peptides, […] was added to each well and the absorbance at 490 nm was measured using a kinetic microplate reader (Vmax, Molecular Devices, Inc., Sunnyvale, Calif.). The MTS assay was performed at 72 hours after exposure of the cells to determine the IC50 for each of the selected compounds.
FIGS. 1-3 show the results of exposure of the indicated cancer cell lines to 50 μM of the indicated compounds of the invention.

MiaPaCa-2-luc cells [2] = test: Tumor growth in xenograft nude mice; assay type: in vivo
Method: Female nude or SCID mice were purchased six weeks old and were maintained in the animal facility, and all experiments were performed in compliance with NIH animal use guidelines using IACUC protocol approved by the Roswell Park Animal Care Committee. The 1×10^6 MiaPaCa2 cells were injected into mice subcutaneously. Next day after cell injection or week later, when tumor size reached 100 mm^3, drug was introduced by IP or gavage orally daily, 5 days per week for several weeks. Tumor diameters were measured with calipers and tumor volume in mm^3 was calculated using this formula: tumor volume=(width)^2×Length/2. At the end of the experiment, tumor weight and volume were determined. Tumor samples were collected for Western blotting and for immunohistochemical analysis.
Mice received a daily dose of the indicated amount of compounds 9A, 9B or C10 either by intraperitoneal injection (IP) or by oral gavage (PO). Treatment was initiated after tumors reached a volume of approximately 100 mm^3. […] The percent reduction in tumor volume compared to the control group (“PBS-IP”) is indicated in FIG. 6B for each treatment group.

[3] = tested on: phosphorylated Akt and phosphorylated Erk; test: Western blot of downstream effectors of FAK (Akt, Erk); assay type: cell-based; conditions: MiaPaCa-2-luc and MCF-7-VEGFR3 cells, 1, 10 or 25 μM for 24 hours
Method: Western blots were performed essentially as previously described. See: Beierle E, Ma X, Trujillo A, Kurenova E, Cance W, Golubovskaya V: Inhibition of focal adhesion kinase and src increases detachment and apoptosis in human neuroblastoma cell lines. Mol Carcinog 2010, 49:224-234; Kurenova E, Xu L, Yang X, Baldwin A J, Craven R, Hanks S, Liu Z, Cance W: Focal adhesion kinase suppresses apoptosis by binding to the death domain of receptor-interacting protein. Mol Cell Biol 2004, 24:4361-4371. Briefly, cells were treated with the agent under study, then lysed on ice for 30 min in a buffer containing 50 mM Tris-HCL, (pH 7.5), 150 mM NaCl, 1% Triton-X, 0.5% NaDOC, 0.1% SDS, 5 mM EDTA, 50 mM NaF, 1 mM NaVO3, 10% glycerol, and protease inhibitors: 10 μg/mL leupeptin, 10 μg/mL PMSF and 1 μg/ML aprotinin. The lysates were cleared by centrifugation at 10 000 rpm for 30 min at 4° C. Protein concentrations were determined using a Bio-Rad kit (BioRad, Hercules, Calif.) and proteins were separated by electrophoresis on SDS-PAGE gels. Antibodies were used according to manufacturer's recommended conditions. Molecular weight markers were used to confirm the expected size of the target proteins. Immunoblots were developed with chemiluminescence Amersham ECL Western blotting detection reagents (GE Healthcare Biosciences). […]

[4] = tested on: pancreatic cancer cell line; test: Clonogenicity (colony formation); assay type: cell-based, Human; conditions: compared with chloropyramine (C4)
Method: The 500-1000 cells were plated on 6 well plates and incubated at 37° C. for 1-2 weeks. Then cells were fixed in 25% methanol and stained with Crystal Violet and colonies were visualized and counted in two independent experiments.
In FIG. 11, results of such a clonogenicity study are shown for compounds C9 and C10 using a pancreatic cancer cell line. In this particular study, since compound C1 is not active against this particular cancer cell line (see FIG. 3), it was used as a negative control. Chloropyramine (“C4”), which has been previously shown to have some activity against this cancer cell line, was used as a positive control.

MCF-7-VEGFR3 cells = test: MTS cell viability assay, MCF-7-VEGFR3 cells; assay type: cell-based; conditions: MTS assay at 72 hours
Method: as §1
(§2) In FIGS. 15 and 16, MiaPaCa-2-luc cells (with an IC50 for C9 of 8 μM and for C10 of 20 μM) and MCF-7-VEGFR3 cells (with an IC50 for C9 of 4 μM and for C10 of 8 μM) were treated with 1, 10 or 25 μM C9 or C10 for 24 hours (the MCF-7-VEGFR3 cells serving as a positive control in this study). Western blots were performed as described above to determine the levels of total Akt, phosphorylated Akt (pAkt), total Erk, and phosphorylated Erk (pErk). […]

MiaPaCa-2-luc cells [5] = test: MTS cell viability assay, MiaPaCa-2-luc cells; assay type: cell-based; conditions: Homo sapiens, MTS assay at 72 hours
Method: as §1, §2

[6] = target: T2, FAK and VEGFR3 (Flt-4) proteins (Homo sapiens, UniProt Q05397); test: Immunoprecipitation with FAK antibody after treatment of MiaPaCa-2 cells (FAK-VEGFR3 binding); assay type: cell-based; conditions: 24 h of treatment
T2 construct: Immunoprecipitation with FAK antibody after 24 h of treatment of MiaPaCa-2 cells; endogenous in cells; host or cells: MiaPaCa-2
Method: For immunoprecipitation, cells are lysed with NP40 lysis buffer, and 1000 μg of total protein is precleared with protein A/G-agarose beads (CalBiochem) at 4° C. for 1 hour and then incubated with 5 μg of antibody overnight followed by a 2 hour incubation with protein A/G-agarose beads at 4° C. Precipitates are washed thrice with cold PBS and the beads are resuspended in SDS-PAGE sample loading buffer, boiled for 5 minutes, and resolved by SDS-PAGE. Proteins are transferred to polyvinylidene difluoride membrane, probed with the appropriate antibody, and detected with chemiluminescence using Amersham ECL Western blotting detection reagents (GE Healthcare Life Sciences, Piscataway, N.J.).
The study utilized the “Octet Red” technology (ForteBio, Menlo Park, Calif.), which provides real-time monitoring for protein-small molecule interactions and binding events using BioLayer Interferometry (BLI) technology. Any change in the number of molecules bound to the biosensor tip changes the optical layer thickness. […] Since C1 is not active against this pancreatic cancer cell line, it was included as a negative control, and chloropyramine (“C4”), which has been shown previously to be active against this cell line, was used as a positive control.

T2 sequence (Q05397 2-1052 limits assumed): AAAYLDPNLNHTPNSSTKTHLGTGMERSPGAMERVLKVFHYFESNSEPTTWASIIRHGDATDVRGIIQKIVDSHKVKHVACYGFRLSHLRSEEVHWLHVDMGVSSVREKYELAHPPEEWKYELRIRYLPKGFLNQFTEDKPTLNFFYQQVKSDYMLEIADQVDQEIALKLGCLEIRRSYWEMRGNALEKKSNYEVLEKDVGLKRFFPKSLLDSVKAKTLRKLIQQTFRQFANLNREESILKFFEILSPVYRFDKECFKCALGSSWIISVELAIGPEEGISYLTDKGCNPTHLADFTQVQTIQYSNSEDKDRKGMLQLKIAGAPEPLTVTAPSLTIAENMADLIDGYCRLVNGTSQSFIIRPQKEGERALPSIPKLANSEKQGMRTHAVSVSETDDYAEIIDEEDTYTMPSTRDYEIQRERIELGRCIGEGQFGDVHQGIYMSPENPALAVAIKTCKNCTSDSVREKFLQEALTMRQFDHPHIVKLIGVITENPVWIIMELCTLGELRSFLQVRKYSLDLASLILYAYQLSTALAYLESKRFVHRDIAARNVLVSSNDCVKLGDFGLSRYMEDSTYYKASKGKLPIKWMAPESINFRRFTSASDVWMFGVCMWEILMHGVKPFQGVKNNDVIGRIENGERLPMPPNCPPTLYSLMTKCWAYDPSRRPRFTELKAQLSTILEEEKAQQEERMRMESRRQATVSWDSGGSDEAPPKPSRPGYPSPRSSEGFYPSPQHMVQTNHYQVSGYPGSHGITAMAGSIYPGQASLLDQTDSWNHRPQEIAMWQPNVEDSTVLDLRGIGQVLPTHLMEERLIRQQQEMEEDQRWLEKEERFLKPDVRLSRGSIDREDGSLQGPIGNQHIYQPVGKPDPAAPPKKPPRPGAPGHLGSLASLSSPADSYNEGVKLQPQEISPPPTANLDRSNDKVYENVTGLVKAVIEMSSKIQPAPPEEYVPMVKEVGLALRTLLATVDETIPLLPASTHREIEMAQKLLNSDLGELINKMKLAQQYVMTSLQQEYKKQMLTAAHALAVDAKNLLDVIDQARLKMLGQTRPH

| binding to the FAT domain of FAK (FAK FAT domain) | IC50 (MCF-7-VEGFR3 cells) [µM] | IC50 (MiaPaCa-2-luc cells [5]) [µM] | concentration at which binding of FAK and VEGFR3 (Flt-4) proteins was disrupted [6] [µM] | SMILES | activity against pancreatic cancer cell line [1] | tumor volume compared to vehicle (PBS)-treated tumors (MiaPaCa-2-luc cells [2]; IP 20 mg/kg daily, P<0.05) | effectiveness by route of administration (MiaPaCa-2-luc cells [2]; oral vs intraperitoneal) | phosphorylated Akt level [3] | phosphorylated Erk level [3] | inhibition of colony formation [4] |
| --- | --- | --- | --- | --- | --- | --- | --- | --- | --- | --- |
| does not appear to bind | – | – | – | CN(C)CCNc1ccccn1 [Compound C1] | not active | – | – | – | – | – |
| – | 8 | 20 | 10 | CN(C)CCN(Cc1ccc(Cl)cc1)c1ccc2ccccc2n1 [Compound C10] | – | Statistically significant differences | very effective when administered orally | strong down-regulation | strong down-regulation | active at much lower doses than C4 |
